The text below walks through data of publication PMC9951290, “Comprehensive Structure–Activity Relationship Studies of Cepafungin Enabled by Biocatalytic C–H Oxidations” (ACS Central Science, 2023).

Structures are written as SMILES.

The target of test [1] is T1, proteasome subunit β5 (Homo sapiens, UniProt P28074).
T1 construct: Following incubation of the compounds in cell culture for 6 h, cells were lysed; endogenous in cells; host or cells: RPMI 8226 (human multiple myeloma)
As to conditions: in situ in RPMI 8226 cells; preliminary analogue series, Figure 2; cited from earlier work.

Test [2] relates to RPMI 8226 cells. The test is described as follows: Cytotoxicity measurement (WST-1), RPMI 8226. It is filed as cell-based, human. As to conditions: Homo sapiens; RPMI 8226, 48 hours, WST-1, n = 3; read-out: Cytotoxicity EC50 (cell viability). As for the experimental part:
Cellular assays were performed on human multiple myeloma RPMI 8226 cells (Figure 4). First, relative inhibition of proteasome subunits β5 and β2 for all analogues and the natural product was measured at 30 nM compound concentration. Following incubation of the compounds in cell culture for 6 h, cells were lysed, and fluorogenic subunit-specific peptide substrates Suc-LLVY-AMC (β5) or Ac-RLR-AMC (β2) were incubated with the lysates; fluorescence readings provided relative proteasome activity levels in comparison with DMSO (Figure 4A). Next, cytotoxicity screening was performed at 30 and 100 nM concentrations for sufficient coverage of dynamic range (Figure 4B). […] Therefore, the improved cytotoxicity of phenyl cepafungin 50 likely results from a more pronounced loss of β5 function in RPMI 8226 cells. This drastic increase in proteasome inhibition may be due to π-stacking of the lipid tail phenyl ring with the β6 subunit residues Tyr106 and/or Tyr5. The β2 subunit-bound natural product has residues Tyr102 and Phe103 on the adjacent β3 subunit oriented further away from the terminal lipid methyl groups, and presumably would not facilitate π-stacking to the extent possible at the adjacent β6 subunit (see Figure 3 and Figure S4). […] These combined modifications were made in hopes that the effects of both substitutions would be additive. […] The presence of a Thr residue next to the cepafungin macrocycle appears to be favored over the ethyl side chain of desoxy-Thr analogue 44 as indicated by cytotoxicity and hydrogen-bonding seen in the cepafungin-bound crystal structure (Figures 3 and 4B).
AMC (β5) or Ac-RLR-AMC (β2). […]
Cytotoxicity Measurements
in DMSO) or DMSO and cultured for 48 hours. Toxicity was determined using the WST-1 assay
(Roche) according to the protocol of the manufacturer. (n = 3)
Figure S1. […]
(In general: Tetrazolium dyes change colour on reduction, which living cells bring about.)

The test system of test [3] is RPMI 8226 cells. As to conditions: ∼3700 proteins quantified, 19 in common; cited from earlier work.
Test [4] deals with proteasome subunits β2/2i, β5/5i, β1i, β1. As to conditions: in-gel labeling, cited from earlier work.
In test [5] the target is T2, proteasome subunit β2 (Homo sapiens, UniProt Q99436).
T2 sequence (Q99436 44-277): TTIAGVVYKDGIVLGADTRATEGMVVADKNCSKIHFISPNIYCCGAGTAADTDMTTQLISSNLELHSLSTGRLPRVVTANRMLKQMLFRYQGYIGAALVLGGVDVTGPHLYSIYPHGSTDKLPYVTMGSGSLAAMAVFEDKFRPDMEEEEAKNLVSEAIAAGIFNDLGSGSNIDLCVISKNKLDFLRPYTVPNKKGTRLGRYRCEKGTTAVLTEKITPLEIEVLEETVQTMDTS
The test is described as follows: In situ β2 proteasome activity assay (Ac-RLR-AMC) in RPMI 8226 cells. It is filed as cell-based. As to conditions: 6 h, n = 3, Figure 4D. The protocol: Cellular assays were performed on human multiple myeloma RPMI 8226 cells (Figure 4). First, relative inhibition of proteasome subunits β5 and β2 for all analogues and the natural product was measured at 30 nM compound concentration. Following incubation of the compounds in cell culture for 6 h, cells were lysed, and fluorogenic subunit-specific peptide substrates Suc-LLVY-AMC (β5) or Ac-RLR-AMC (β2) were incubated with the lysates; fluorescence readings provided relative proteasome activity levels in comparison with DMSO (Figure 4A). Next, cytotoxicity screening was performed at 30 and 100 nM concentrations for sufficient coverage of dynamic range (Figure 4B). […] Therefore, the improved cytotoxicity of phenyl cepafungin 50 likely results from a more pronounced loss of β5 function in RPMI 8226 cells. This drastic increase in proteasome inhibition may be due to π-stacking of the lipid tail phenyl ring with the β6 subunit residues Tyr106 and/or Tyr5. […]
Mammalian cells were maintained in RPMI-1640 media. […] Cells were lysed by needle sonication to obtain cell lysates and protein concentration was determined using the […]
fluorescence was read at A360ex/A460em. […]
in DMSO) or DMSO and cultured for 48 hours. Toxicity was determined using the WST-1 assay (Roche) according to the protocol of the manufacturer. […]

A word on the IC50: it is the point on the concentration scale where inhibition reaches its midpoint. Broadly, the EC50 is the concentration at which the effect is half-maximal. As for `CC(C)CCCCCC=CC=CC(=O)NC(C(=O)NC1CC(O)CCNC(=O)C=CC(C)NC1=O)C(C)O` (stereo not drawn) [compound 1, cepafungin I], the IC50 in test [1] was 16 ± 1 nM; in test [5] it was 43 nM. Also, in test [2], the EC50 was 14 nM. Besides, the “number of proteins upregulated compared to DMSO control” value in test [3] is 88 proteins. Also, the “engagement of β1” value in test [4] (RPMI 8226, even at high concentrations) is on record as “very little engagement”. Moreover, in test [4] (RPMI 8226), the “competition for subunits β2/2i, β5/5i and β1i” value was “low-nanomolar concentrations”.
